Data set [1] in a line: Cynomolgous monkey plasma stability. It counts as in vitro ADME. The note with it: 37° C., 1 μM final incubation concentration, parent compound by LC-MS-MS. As to the method: Cynomolgous Monkey Plasma Stability
To determine the half life of the test compound in cynomolgous monkey plasma, incubations were performed at 37° C. in a shaking water bath. The test compound (5 μL of a 100 μM stock in MeCN) was spiked into 0.495 mL plasma to give a final incubation concentration of 1 μM. Aliquots (50 μL) were withdrawn at various time points (typically 0, 20 and 40 sec, 1, 2, 3, 5 and 10 mins) and quenched into MeCN (300 μL) followed by analysis for parent compound by LC-MS-MS (MRM mode). The half life was calculated from the decline of test compound peak area over time

Data set [2] can be described thus: Human plasma stability. The conditions noted are these: 37° C., 1 μM final incubation concentration, parent compound by LC-MS-MS. The class given is in vitro ADME. On the procedure: To determine the half life of the test compound in human plasma, incubations were performed at 37° C. in a shaking water bath. Compound (5 μL of a 100 μM stock in MeCN) was spiked into 0.495 mL plasma to give a final incubation concentration of 1 μM. Aliquots (50 μL) were withdrawn at various time points (typically 0, 20 and 40 sec, 1, 2, 3, 5 and 10 mins) and quenched into MeCN (300 μL) followed by analysis for parent compound by LC-MS-MS (MRM mode). The half life was calculated from the decline of test compound peak area over time.

Data set [3] can be described thus: Gravimetric Vapour Sorption (GVS). It counts as physicochemical. On the procedure:
Gravimetric Vapour Sorption (GVS) profiles were measured using a TA Instruments Q5000SA instrument. Approximately 1 mg to 5 mg of the solid sample was placed into a metal vessel, and the weight of the sample was recorded during a dual cycle step method (40 to 90 to 0 to 90 to 0% relative humidity (RH), in steps of 10% RH).

Data set [4] addresses T1, human TLR7 (Homo sapiens, UniProt Q9NYK1).
T1 construct: expressed in transfected cells; host or cells: HEK293 cell line stably expressing the pNiFty2-SEAP reporter plasmid; TLR7 in pUNO vector, blasticidin selection
T1 sequence (Q9NYK1 27-1049): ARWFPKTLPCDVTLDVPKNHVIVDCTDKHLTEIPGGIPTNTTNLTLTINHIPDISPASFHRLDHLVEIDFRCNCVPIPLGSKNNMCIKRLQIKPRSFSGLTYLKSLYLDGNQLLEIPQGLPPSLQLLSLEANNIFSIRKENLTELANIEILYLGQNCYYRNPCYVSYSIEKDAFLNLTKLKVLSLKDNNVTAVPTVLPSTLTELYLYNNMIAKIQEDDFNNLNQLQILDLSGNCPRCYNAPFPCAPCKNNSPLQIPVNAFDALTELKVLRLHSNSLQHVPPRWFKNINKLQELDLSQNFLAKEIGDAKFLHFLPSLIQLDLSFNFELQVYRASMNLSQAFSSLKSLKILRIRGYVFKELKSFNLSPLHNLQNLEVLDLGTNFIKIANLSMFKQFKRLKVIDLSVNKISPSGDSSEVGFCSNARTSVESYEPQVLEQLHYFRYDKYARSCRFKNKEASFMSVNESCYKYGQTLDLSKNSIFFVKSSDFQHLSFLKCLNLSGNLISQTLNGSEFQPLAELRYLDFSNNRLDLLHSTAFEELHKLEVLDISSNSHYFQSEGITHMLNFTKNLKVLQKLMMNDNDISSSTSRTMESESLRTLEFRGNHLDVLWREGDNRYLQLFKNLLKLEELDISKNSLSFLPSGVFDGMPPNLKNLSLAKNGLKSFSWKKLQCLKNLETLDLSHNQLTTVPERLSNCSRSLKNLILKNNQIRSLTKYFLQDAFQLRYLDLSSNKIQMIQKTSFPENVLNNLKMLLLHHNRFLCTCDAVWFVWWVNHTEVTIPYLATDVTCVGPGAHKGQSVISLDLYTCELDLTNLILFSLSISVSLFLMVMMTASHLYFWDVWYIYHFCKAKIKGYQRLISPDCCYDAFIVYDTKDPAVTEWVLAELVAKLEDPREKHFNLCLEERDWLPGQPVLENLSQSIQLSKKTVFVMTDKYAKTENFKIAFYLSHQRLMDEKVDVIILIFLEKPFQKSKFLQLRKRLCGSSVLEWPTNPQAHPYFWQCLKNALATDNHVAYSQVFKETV
The data set is described as follows: Human TLR7 assay (SEAP reporter in HEK293 cells). It counts as cell-based. The note with it: HEK293 cell line expressing recombinant human TLR7 and pNiFty2-SEAP reporter; overnight incubation at 37° C., 0.1% DMSO; read-out: mean pEC50 (concentration producing half of the maximal level of SEAP induction) (converted). The text has this: Recombinant human TLR7 was stably expressed in a HEK293 cell line already stably expressing the pNiFty2-SEAP reporter plasmid; integration of the reporter gene was maintained by selection with the antibiotic zeocin. The most common variant sequence of human TLR7 (represented by the EMBL sequence AF240467) was cloned into the mammalian cell expression vector pUNO and transfected into this reporter cell-line. Transfectants with stable expression were selected using the antibiotic blasticidin. In this reporter cell-line, expression of secreted alkaline phosphatase (SEAP) was controlled by an NFkB/ELAM-1 composite promoter comprising five NFkB sites combined with the proximal ELAM-1 promoter. TLR signaling leads to the translocation of NFkB and activation of the promoter results in expression of the SEAP gene. TLR7-specific activation was assessed by determining the level of SEAP produced following overnight incubation of the cells at 37° C. with the test compound prepared above in the presence of 0.1% (v/v) dimethylsulfoxide (DMSO). Concentration dependent induction of SEAP production by compounds was expressed as the concentration of compound which produced half of the maximal level of SEAP induction for that compound (pEC50).

Take `CCOCc1nc2c(N)nc3ccccc3c2n1CCCN(Cc1cccc(CC(=O)OC)c1)C(=O)CN(C)C` [Comparative Example 1, Methyl 2-(3-((N-(3-(4-amino-2-(ethoxymethyl)-1H-imidazo[4,5-c]quinolin-yl)propyl)-2-(dimethylamino)acetamido)methyl)phenyl)acetate, reference compound]: the half-life at 1 μM in data set [1] is 660 s; in data set [2], 42 s.

With `CCOCc1nc2c(N)nc3ccccc3c2n1CCCCN(Cc1cccc(CC(=O)OC)c1)C(=O)CN(CC)CC` [Compound (I), Methyl (3-{[{4-[4-amino-2-(ethoxymethyl)-1H-imidazo[4,5-c]quinolin-1-yl]butyl}(N,N-diethylglycyl)amino]methyl}phenyl)acetate], the “mass increase at 80% relative humidity, cycle 1” value in data set [3] (cycle 1) is 0.5%. The “mass increase at 80% relative humidity, cycle 2” value in data set [3] (cycle 2) was 0.64%. The half-life at 1 μM amounted to 72 s in data set [1] and 18 s in data set [2]. The EC50 in data set [4] was 0.0398 µM.

The half-life is how long it takes for the measured level to halve.

(Values after patent US9045472B2, “Imidazoquinoline compounds” (ASTRAZENECA AB, priority 2010, dated 2015).)
